Experimental data taken from ChEMBL document CHEMBL1125069, “Synthesis and antitumor activity of 2-beta-D-ribofuranosyloxazole-4-carboxamide (oxazofurin)” (J Med Chem, 1990).

Assays:
B16 [1] = assay: In vitro inhibitory activity against B16 murine melanoma cells; format: functional, cell-based; settings: Mus musculus
HL-60 [2] = assay: In vitro inhibitory activity against HL-60 human promyelocytic leukemia cells until a maximum concentration of 4*(10e-3) M; a = inactive until a maximum tested concentration of 4*(10e-3) M; format: functional, cell-based
L1210 [3] = assay: In vitro inhibitory activity against L1210 murine lymphocytic leukemia cells; a = inactive until a maximum tested concentration of 4*(10e-3) M; format: functional, cell-based, Mus musculus
P388 [4] = assay: In vitro inhibitory activity against P388 murine lymphocytic leukemia cells; a = inactive until a maximum tested concentration of 4*(10e-3) M; format: functional, cell-based, Mus musculus
B16 [5] = assay: In vitro inhibitory activity against B16 murine melanoma cells; b = inactive until a maximum tested concentration of […]; format: functional, cell-based, Mus musculus
HL-60 [6] = assay: In vitro inhibitory activity against HL-60 human promyelocytic leukemia cells; b = inactive until a maximum tested concentration of […]; format: functional, cell-based
L1210 [7] = assay: In vitro inhibitory activity against L1210 murine lymphocytic leukemia cells; b = inactive until a maximum tested concentration of […]; format: functional, cell-based, Mus musculus
P388 [8] = assay: In vitro inhibitory activity against P388 murine lymphocytic leukemia cells; b = inactive until a maximum tested concentration of 2.5(10e-4) M
HL-60 [9] = assay: In vitro inhibitory activity against HL-60 human promyelocytic leukemia cells; format: functional, cell-based
L1210 [10] = assay: In vitro inhibitory activity against L1210 murine lymphocytic leukemia cells; format: functional, cell-based; settings: Mus musculus
P388 [11] = assay: In vitro inhibitory activity against P388 murine lymphocytic leukemia cells; format: functional, cell-based; settings: Mus musculus

IC50 (B16 [1]) [µM] | IC50 (HL-60 [2]) | IC50 (L1210 [3]) | IC50 (P388 [4]) | IC50 (B16 [5]) | IC50 (HL-60 [6]) | IC50 (L1210 [7]) | IC50 (P388 [8]) | IC50 (HL-60 [9]) [µM] | IC50 (L1210 [10]) [µM] | IC50 (P388 [11]) [µM] | Compound
3020 | Inactive until max test conc 4x10^-3M | Inactive until max test conc 4x10^-3M | Inactive until max test conc 4x10^-3M |  |  |  |  |  |  |  | NC(=O)c1coc([C@@H]2O[C@H](CO)[C@@H](O)[C@H]2O)n1
 |  |  |  | Inactive until max test conc 2.5x10^-4M | Inactive until max test conc 2.5x10^-4M | Inactive until max test conc 2.5x10^-4M | Inactive until max test conc 2.5x10^-4M |  |  |  | NC(=O)c1nc(-c2ccc(CO)o2)oc1N
 |  |  |  | Inactive until max test conc 2.5x10^-4M | Inactive until max test conc 2.5x10^-4M | Inactive until max test conc 2.5x10^-4M | Inactive until max test conc 2.5x10^-4M |  |  |  | NC(=O)c1coc(-c2ccc(CO)o2)n1
16.2 |  |  |  |  |  |  |  | 6.1 | 6.2 | 16.7 | NC(=O)c1csc([C@@H]2O[C@H](CO)[C@@H](O)[C@H]2O)n1 [TIAZOFURIN]
